Legend:
Format in all cases: in vivo
[1] = tested on: Echinochloa crus-galli; assay: Pre-emergence herbicidal action, ECHCG; parameters: key to Herbicidal action against ECHCG: % activity: 100 = plants have died, 0 = like control plants; conditions: for herbicidal activity ECHCG: dosage 320 g/ha, scored visually after 3 weeks vs untreated controls (100% = plants have died)
Method in brief: (§1)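 Pre-emergence, sandy loam soil; WP/EC formulation applied to covering soil surface, 600–800 l/ha water + 0.2% wetter; greenhouse, 3 wk; visual % damage vs untreated (0–100%).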

[2] = tested on: Hordeum murinum; assay: Pre-emergence herbicidal action, HORMU; conditions: dosage 320 g/ha, scored visually after 3 weeks vs untreated controls (100% = plants have died)
Method in brief: as §1

[3] = tested on: Lolium rigidum; assay: Pre-emergence herbicidal action, LOLRI; conditions: dosage 320 g/ha, scored visually after 3 weeks vs untreated controls (100% = plants have died)
Excerpt: 1. Pre-Emergence Herbicidal Action Against Harmful Plants Seeds of monocotyledonous and dicotyledonous weed plants and crop plants are laid out in sandy loam soil in wood-fiber pots and covered with soil. The compounds of the invention, formulated in the form of wettable powders (WP) or as emulsion concentrates (EC), are then applied to the surface of the covering soil in the form of an aqueous suspension or emulsion at a water application rate equating to 600 to 800 l/ha, with addition of 0.2% wetting agent. After the treatment, the pots are placed in a greenhouse and kept under good growth conditions for the trial plants. The damage to the test plants is scored visually after a test period of 3 weeks by comparison with untreated controls (herbicidal activity in percent (%): 100% activity=the plants have died, 0% activity=like control plants). […] The tables below illustrate, in an exemplary manner, the […] herbicidal action of the compounds according to the invention, the herbicidal activity being stated in percent. [table] In the experiments that follow, herbicidal action of numerous inventive compounds and the known compounds that are structurally closest from D1 (WO 2012/028579 A1) and D2 (WO 2018/202535 A1) were compared under the above-specified conditions by the pre-emergence and post-emergence method. The example numbers given in the tables relate to the compounds disclosed in the respective documents. In addition to the compounds disclosed in D1 and D2, the following compounds V-1 to V-14 that are encompassed by D1 or D2 but are not compounds specified therein were used in the comparative experiments: • V-1: 2-(methylsulfanyl)-3-(methylsulfinyl)-N-(1-methyl-1H-tetrazol-5-yl)-4-(trifluoromethyl)benzamide • V-2: 2-(methylsulfanyl)-3-(methylsulfonyl)-N-(1-methyl-1H-tetrazol-5-yl)-4-(trifluoromethyl)benzamide • V-3: 2,3-bis(ethylsulfanyl)-N-(1-methyl-1H-tetrazol-5-yl)-4-(trifluoromethyl)benzamide • V-4: 2-chloro-3-(ethylsulfanyl)-N-(1-methyl-1H-tetrazol-5-yl)-4-(trifluoromethyl)benzamide • V-5: 2-chloro-4-iodo-3-(methylsulfanyl)-N-(1-methyl-1H-tetrazol-5-yl)benzamide • V-6: 2-chloro-4-iodo-3-(methylsulfinyl)-N-(1-methyl-1H-tetrazol-5-yl)benzamide • V-7: 2-chloro-4-iodo-3-(methylsulfonyl)-N-(1-methyl-1H-tetrazol-5-yl)benzamide • V-8: 2-bromo-3-(methylsulfanyl)-N-(1-methyl-1H-tetrazol-5-yl)-4-(trifluoromethyl)benzamide • V-9: 2-bromo-3-(methylsulfinyl)-N-(1-methyl-1H-tetrazol-5-yl)-4-(trifluoromethyl)benzamide • V-10: 2-bromo-3-(methylsulfonyl)-N-(1-methyl-1H-tetrazol-5-yl)-4-(trifluoromethyl)benzamide • V-11: 2-bromo-3-(ethylsulfanyl)-N-(1-methyl-1H-tetrazol-5-yl)-4-(trifluoromethyl)benzamide • V-12: 2-bromo-3-(ethylsulfinyl)-N-(1-methyl-1H-tetrazol-5-yl)-4-(trifluoromethyl)benzamide • V-13: 2-bromo-3-(ethylsulfonyl)-N-(1-methyl-1-1H-tetrazol-5-yl)-4-(trifluoromethyl)benzamide • V-14: 2-cyclopropyl-3-(ethylsulfanyl)-N-(1-methyl-1H-tetrazol-5-yl)-4-(trifluoromethyl)benzamide Herbicidal Pre-Emergence Action: […]

[4] = tested on: Avena fatua; assay: Post-emergence herbicidal action, AVEFA; parameters: key: % herbicidal action vs untreated; 100 = plants died, 0 = like control
Method in brief: (§2)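 Visual % damage versus untreated plants, scored about 3 weeks post-spray (100% = dead, 0% = like control). Greenhouse plants in sandy loam were treated at one-leaf stage with WP/EC formulations in water at 600 to 800 l/ha plus 0.2% wetting agent.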

[5] = tested on: Echinochloa crus-galli; assay: Post-emergence herbicidal action, ECHCG; parameters: key: % herbicidal action vs untreated; 100 = plants died, 0 = like control
Method in brief: as §2

[6] = tested on: Cyperus esculentus; assay: Post-emergence herbicidal action, CYPES; parameters: key: % herbicidal action vs untreated; 100 = plants died, 0 = like control
Method in brief: as §2

SMILES | herbicidal activity ECHCG [1] | herbicidal activity HORMU [2] | herbicidal activity LOLRI [3] | herbicidal action AVEFA ([4]; post-emergence, dosage 80 g/ha) | herbicidal action ECHCG ([5]; post-emergence, dosage 80 g/ha) | herbicidal action CYPES ([6]; post-emergence, dosage 80 g/ha) | herbicidal action AVEFA ([4]; Dosage 80 g/ha) | herbicidal action ECHCG ([5]; Dosage 80 g/ha) | Herbicidal action against ECHCG ([1]; comparative experiment, 20 g of a.i./ha) | herbicidal action CYPES ([6]; Dosage 80 g/ha)
CC[S+]([O-])Cc1c(C(F)(F)F)ccc(C(=O)Nc2nnnn2C)c1Cl (racemic) [Example 1-300] | 100% | 100% | 100% | 100% | 100% | – | – | – | – | –
Cn1nnnc1NC(=O)c1ccc(C(F)(F)F)c(C[S+]([O-])C2CC2)c1Cl (racemic) [Example 1-303] | 100% | 100% | 100% | 100% | 100% | 80% | – | – | – | –
COCC[S+]([O-])Cc1c(C(F)(F)F)ccc(C(=O)Nc2nnnn2C)c1Cl (racemic) [Example 1-306] | 100% | 90% | 90% | – | – | – | 80 | 90 | – | –
Cn1nnnc1NC(=O)c1ccc(C(F)(F)F)c(C[S+]([O-])CC(F)(F)F)c1Cl (racemic) [Example 1-312] | 100% | 100% | 90% | 90% | 100% | – | – | – | – | –
Cn1nnnc1NC(=O)c1ccc(I)c(C[S+](C)[O-])c1Cl (racemic) [Example 1-363] | 100% | 100% | 100% | 100% | 100% | – | – | – | – | –
CSc1c(C(=O)Nc2nnnn2C)ccc(C(F)(F)F)c1C[S+](C)[O-] (centres unmarked) [Example 1-162] | 100% | 80% | 90% | 100% | 100% | 80% | – | – | 90 | –
Cn1nnnc1NC(=O)c1ccc(C(F)(F)F)c(CSC2CC2)c1Cl [Example 1-302] | 100% | 100% | 100% | 100% | 100% | 80% | – | – | – | –
Cn1nnnc1NC(=O)c1ccc(C(F)(F)F)c(CS(=O)(=O)C2CC2)c1Cl [Example 1-304] | 100% | 100% | 100% | 100% | 100% | 90% | – | – | – | –
COCCSCc1c(C(F)(F)F)ccc(C(=O)Nc2nnnn2C)c1Cl [Example 1-305] | 100% | 100% | 90% | 100% | 100% | 90% | – | – | – | –
Cn1nnnc1NC(=O)c1ccc(C(F)(F)F)c(CSCC(F)(F)F)c1Cl [Example 1-311] | 100% | 100% | 100% | – | – | – | 100 | 100 | – | 100
Cn1nnnc1NC(=O)c1ccc(C(F)(F)F)c(CSCC2CC2)c1Cl [Example 1-314] | 100% | 100% | 100% | 100% | 100% | 80% | – | – | – | –
Cn1nnnc1NC(=O)c1ccc(C(F)(F)F)c(CS(=O)(=O)CC2CC2)c1Cl [Example 1-316] | 100% | 90% | 90% | – | – | – | 100 | 100 | – | –
